From US20250236627A1, “CERTAIN OCTAHYDROFURO[3,4- B]PYRAZINES AS GLP-1 RECEPTOR MODULATORS” (ASTRAZENECA AB, priority 2021, published 2025)
pEC50: −log10 of the molar value.

Columns and labels:
[1] = biological target: T1, human GLP-1R receptor (Homo sapiens, UniProt P43220, L260F); assay: CHOK1 GLP-1R cAMP Assay; format: cell-based; conditions: CHO-K1 cell line stably expressing human GLP-1R; HTRF cAMP detection
T1 construct: expressed in transfected cells; host or cells: CHO-K1 (ATCC CCL-61)
Procedure: A cell line stably expressing the human GLP-1R receptor (NM_002062.5, including the naturally-occurring variant Leu260Phe) in a CHO-K1 (ATCC® CCL-61™) was used for assay.
GLP-1 Receptor mediated agonist activity was determined in a cell based assay measuring cAMP levels in cells using Homogeneous Time-Resolved Fluorescence (HTRF) cAMP detection kit (CisBio catalog #62AM4PEC, cAMP Gs Dynamic range kit). The cAMP detection method is based on a competitive immunoassay, in which cAMP produced by the cells and cAMP labeled with the dye d2 compete for binding to a Europium-Cryptate-labeled anti-cAMP antibody. The specific HTRF signal is inversely proportional to the concentration of cAMP.
Compounds were added to individual well in 384 well-assay plates (Greiner #784076) using an Echo (LabCyte) dispenser from 10 mM stocks. Varying concentration of compounds were added to wells, and dimethyl sulfoxide was used to normalize each well to a volume of 100 nanoliter. A dose response curve of GLP1(7-36)NH2 (Bachem H-6795) was included in each run. 5 μL of cAMP concentration response standards are applied in specified wells in the assay plates.
Cryo-preserved cells are thawed and resuspended in assay buffer pre-heated to 37° C. (20 mM 2-[4-(2-hydroxyethyl)piperazin-1-yl]ethanesulfonic acid (HEPES) pH 7.4, lx Hank's Balanced Salt Solution (HBSS, Life Technologies #14065) supplemented with 0.1% (w/v) bovine serum albumin (Sigma, A-7030)). Cells were centrifuged at 250*g for 5 min at room temperature, and resuspend in room tempered assay buffer to a final density of 0.16*10^6 cell/mL, to deliver 800 cells/well. 5 μL of assay buffer with 1 mM 3-isobutyl-1-methylxanthin (IBMX; Sigma cat I-7018) was dispensed per well in assay plates using a multidrop combi (Thermo Scientific) subsequently 5 μL of cell suspension was distributed to relevant wells in the assay using a multidrop dispenser. Assay plates were incubated 20 min at room temperature.
Detection reagents, Europium-Cryptate-labeled anti-cAMP antibody and cAMP labeled with the dye d2, are diluted in lysis buffer, provided by the manufacturer. 5 μL of each detection reagent is supplemented to each assay well using a multidrop dispenser. Assay plates are incubated in the dark for at least one hour. The HTRF signal is measured using the HTRF module (excitation: 337 nm, emission A: 665 nm and emission B: 620 nm) in Pherastar FSX (BMG Labtech).
Raw data were converted to pM cAMP using the cAMP standard curve included in each run. Converted data were further analyzed in Genedata Screener (Genedata) and EC50 determinations were made from agonist dose-response curves analyzed with a curve fitting program using a 4-parameter logistic dose response equation (Equation y=A+((B−A)/1+((C/x)^D))) where A is no stimulation, B is full stimulation, C is the EC50 and D is the Hill slope). The percent effect was determined relative to a saturating concentration of a full GLP-1R agonist (GLP1(7-36)NH2 has 100% effect in this assay setup).

[2] = biological target: T2, endogenous human glucagon-like peptide 1 receptor (GLP-1R) (Homo sapiens, UniProt P43220); assay: EndoC cAMP Accumulation Assay; format: cell-based; conditions: EndoC-βH1 human pancreatic β cell line; HTRF cAMP assay
T2 construct: endogenous human glucagon-like peptide 1 receptor (GLP-1R) in a pancreatic insulinoma cell line; host or cells: EndoC-βH1 human pancreatic β cell line
T2 sequence (P43220 24-463): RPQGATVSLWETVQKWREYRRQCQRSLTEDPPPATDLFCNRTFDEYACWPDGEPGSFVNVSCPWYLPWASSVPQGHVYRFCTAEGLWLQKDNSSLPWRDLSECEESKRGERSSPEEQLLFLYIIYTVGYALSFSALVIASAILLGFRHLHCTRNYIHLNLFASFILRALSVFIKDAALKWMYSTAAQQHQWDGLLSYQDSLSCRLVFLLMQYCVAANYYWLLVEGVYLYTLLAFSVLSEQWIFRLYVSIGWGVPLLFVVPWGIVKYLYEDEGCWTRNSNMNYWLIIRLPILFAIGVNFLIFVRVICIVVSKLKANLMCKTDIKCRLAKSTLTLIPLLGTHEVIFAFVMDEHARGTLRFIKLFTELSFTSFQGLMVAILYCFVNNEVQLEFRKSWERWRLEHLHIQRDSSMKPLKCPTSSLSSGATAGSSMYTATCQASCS
From the text: EndoC cAMP Accumulation Assay
A HTRF (Homogeneous Time-Resolved Fluorescence) cAMP assay (cAMP Gs dynamic kit; CisoBio Cat #62AM4PEJ) was used to identify agonists of the endogenous human glucagon-like peptide 1 receptor (GLP-1R) in a pancreatic insulinoma cell line (EndoC-βH1). […] EndoC-βH1 cells have detectable GLP-1R mRNA as detected by qPCR^1. […] The EndoC-βH1 cell line is a valid model of human beta cells and applicable for screenings to identify novel drug target candidates (Mol. Metab., 2018, 8, 144-157). CisBio HTRF cAMP kits are based on a competitive immunoassay using cryptate-labelled anti-cAMP antibody and d2-labeled cAMP. The detection kit is intended for the direct quantitative determination of cAMP. The specific signal (i.e. energy transfer) is inversely proportional to the concentration of cAMP in the standard or sample. Test compounds (10 mM in DMSO) were diluted into assay buffer (HBSS (Sigma #H8264) supplemented with 25 mM HEPES (Gibco #15630, pH 7.4), 0.1% BSA (Sigma #A3059) and 0.5 mM IBMX (Sigma #I7018) included fresh on the day of the assay) into 96 well U-bottom plates (Greiner #650201). Diluted compounds were transferred to ECHO source PP plates (Labcyte #P-05525) and dose response curves were dispensed acoustically using ECHO 550 into black shallow-well u-bottom 384-well HTRF Assay Plates (Corning 4514).
Cryovials of EndoC-H1 (supplied at 1×10e^7 cells/vial) were used directly for screening. The cryovials and were removed from LN2 and thawed rapidly in a 37° C. water bath. The cells were resuspended in assay buffer and centrifuged at 300 g for 5 min. Cells were resuspended in assay buffer at the appropriate concentration, typically at 12e5 cells per mL (3000 cells per well, dependent on cell batch) and 2.5 μL diluted cells were added to all wells of destination plate by Multidrop combi reagent dispenser (Thermofisher). The plates were incubated at room temperature for 30 min. The assay was stopped by adding 2.5 μL anti-cAMP cryptate solution to all wells and 2.5 μL cAMP-d2 solution (both diluted 1:20 in lysis buffer) to columns 1-22 by Combi drop. A volume of 2.5 μL cAMP-d2 solution was added to wells E23 to P24 and 2.5 μL lysis buffer added to wells A23 to D24 by multichannel pipette. The plates were incubated at room temperature for 1 hr and read on an Envision plate reader using excitation wavelength of 320 nm and emission of 590 nm and 660 nm.
Raw data from Envision is converted to % DeltaF according to the manufacturer's instructions. Dose response curves are analysed via 4-Parameter Logistical Analysis and assay plate Z′ values obtained. Samples are graphed as percentage (%) activation plots compared to GIP (1-42, Bachem H-5645) with assay window defined by negative control as basal cell cAMP levels and positive control are defined by maximum GIP (82.5 nM) signal. GLP1 (7-36 amide, Bachem H-6795) dose response curve was included on all plates.

T1 sequence (P43220 24-463 L260F): as the sequence (P43220 24-463) above, with L237F counted along it

Row | pEC50 [1] | pEC50 [2] | Compound
1 | 6.24 | 5.96 | C[C@]1(c2ccc(Cl)cn2)Oc2cccc(N3CCN(Cc4nc5c(F)cc(C(=O)O)cc5n4C[C@@H]4CCO4)[C@H]4COC[C@H]43)c2O1 (single isomer, unassigned) [Example 9c, 2-((4aR*,7aS*)-4-((R*)-2-(5-Chloropyridin-2-yl)-2-methylbenzo[d][1,3]dioxol-4-yl)hexahydrofuro[3,4-b]pyrazin-1(2H)-yl)methyl)-4-fluoro-1-(((S)-oxetan-2-yl)methyl)-1H-benzo[d]imidazole-6-carboxylic acid]
2 | 6.80 | 7.12 | C[C@]1(c2ccc(Cl)cn2)Oc2cccc(N3CCN(Cc4nc5ccc(C(=O)O)cc5n4CCn4cccn4)[C@H]4COC[C@H]43)c2O1 (single isomer, unassigned) [Example 10]
3 | 7.02 | 7.46 | C[C@]1(c2ccc(Cl)cn2)Oc2cccc(N3CCN(Cc4nc5c(F)cc(C(=O)O)cc5n4CCn4cccn4)[C@H]4COC[C@H]43)c2O1 (single isomer, unassigned) [Example 11]
4 | 8.10 | 8.12 | C[C@]1(c2ccc(Cl)cn2)Oc2cccc(N3CCN(Cc4nc5c(F)cc(C(=O)O)cc5n4C[C@@H]4CCCO4)[C@H]4COC[C@H]43)c2O1 (single isomer, unassigned) [Example 12a, 2-(((4aR*,7aS*)-4-((R*)-2-(5-Chloropyridin-2-yl)-2-methylbenzo[d][1,3]dioxol-4-yl)hexahydrofuro[3,4-b]pyrazin-1(2H)-yl)methyl)-4-fluoro-1-(((S)-tetrahydrofuran-2-yl)methyl)-1H-benzo[d]imidazole-6-carboxylic acid]
5 | 7.21 | 7.04 | C[C@]1(c2ccc(Cl)cn2)Oc2cccc(N3CCN(Cc4nc5c(F)cc(C(=O)O)cc5n4C[C@@H]4CCCO4)[C@H]4COC[C@H]43)c2O1 (single isomer, unassigned) [Example 12b, 2-(((4aR*,7aS*)-4-((R*)-2-(5-Chloropyridin-2-yl)-2-methylbenzo[d][1,3]dioxol-4-yl)hexahydrofuro[3,4-b]pyrazin-1(2H)-yl)methyl)-4-fluoro-1-(((S)-tetrahydrofuran-2-yl)methyl)-1H-benzo[d]imidazole-6-carboxylic acid]
6 | 7.26 | 7.89 | C[C@]1(c2ccc(Cl)cc2F)Oc2cccc(N3CCN(Cc4nc5c(F)cc(C(=O)O)cc5n4Cc4cccnc4)[C@H]4COC[C@H]43)c2O1 (single isomer, unassigned) [Example 13a]
7 | 6.17 | 6.54 | C[C@]1(c2ccc(Cl)cc2F)Oc2cccc(N3CCN(Cc4nc5c(F)cc(C(=O)O)cc5n4Cc4cccnc4)[C@H]4COC[C@H]43)c2O1 (single isomer, unassigned) [Example 13b]
8 | 8.82 | 8.48 | C[C@]1(c2ccc(Cl)cn2)Oc2cccc(N3CCN(Cc4nc5c(Cl)cc(C(=O)O)cc5n4C[C@@H]4CCO4)[C@H]4COC[C@H]43)c2O1 (single isomer, unassigned) [Example 14a, 4-Chloro-2-(((4aR*,7aS*)-4-((R*)-2-(5-chloropyridin-2-yl)-2-methylbenzo[d][1,3]dioxol-4-yl)hexahydrofuro[3,4-b]pyrazin-1(2H)-yl)methyl)-1-(((S)-oxetan-2-yl)methyl)-1H-benzo[d]imidazole-6-carboxylic acid]
9 | 6.77 | 6.22 | C[C@]1(c2ccc(Cl)cn2)Oc2cccc(N3CCN(Cc4nc5c(Cl)cc(C(=O)O)cc5n4C[C@@H]4CCO4)[C@H]4COC[C@H]43)c2O1 (single isomer, unassigned) [Example 14b, 4-Chloro-2-(((4aR*,7aS*)-4-((R*)-2-(5-chloropyridin-2-yl)-2-methylbenzo[d][1,3]dioxol-4-yl)hexahydrofuro[3,4-b]pyrazin-1(2H)-yl)methyl)-1-(((S)-oxetan-2-yl)methyl)-1H-benzo[d]imidazole-6-carboxylic acid]
10 | 6.74 | 6.64 | C[C@]1(c2ccc(Cl)cn2)Oc2cccc(N3CCN(Cc4nc5c(Cl)cc(C(=O)O)cc5n4C[C@@H]4CCO4)[C@H]4COC[C@H]43)c2O1 (single isomer, unassigned) [Example 14c, 4-Chloro-2-(((4aR*,7aS*)-4-((R*)-2-(5-chloropyridin-2-yl)-2-methylbenzo[d][1,3]dioxol-4-yl)hexahydrofuro[3,4-b]pyrazin-1(2H)-yl)methyl)-1-(((S)-oxetan-2-yl)methyl)-1H-benzo[d]imidazole-6-carboxylic acid]
11 | 6.72 | 6.32 | C[C@]1(c2ccc(Cl)cn2)Oc2cccc(N3CCN(Cc4nc5c(Cl)cc(C(=O)O)cc5n4C[C@@H]4CCO4)[C@H]4COC[C@H]43)c2O1 (single isomer, unassigned) [Example 14d, 4-Chloro-2-(((4aR*,7aS*)-4-((R*)-2-(5-chloropyridin-2-yl)-2-methylbenzo[d][1,3]dioxol-4-yl)hexahydrofuro[3,4-b]pyrazin-1(2H)-yl)methyl)-1-(((S)-oxetan-2-yl)methyl)-1H-benzo[d]imidazole-6-carboxylic acid]
12 | 7.15 | 6.92 | C[C@]1(c2ccc(Cl)cc2F)Oc2cccc(N3CCN(Cc4nc5c(Cl)cc(C(=O)O)cc5n4C[C@@H]4CCO4)[C@H]4COC[C@H]43)c2O1 (single isomer, unassigned) [Example 15b, 4-Chloro-2-(((4aR*,7aS*)-4-((R*)-2-(4-chloro-2-fluorophenyl)-2-methylbenzo[d][1,3]dioxol-4-yl)hexahydrofuro[3,4-b]pyrazin-1(2H)-yl)methyl)-1-(((S)-oxetan-2-yl)methyl)-1H-benzo[d]imidazole-6-carboxylic acid]
